Results on two molecules are retold here after paper PMC9325861, “Mouse precision-cut liver slices as an ex vivo model to study drug-induced cholestasis” (Archives of Toxicology, 2022).

Where a name gives a salt, the structure may show the parent alone. Read-outs that look alike come from different tables or passages of the source.

One data set deals with human PCLS. On the set-up: method as in Vatakuti et al. [2017]. The conditions noted are these: 30 µM CPZ, without BA mixture, ref Vatakuti et al. [2017]; cited from earlier work.
Data set [1] deals with Collagen type 1a1 (Col1a1). Put plainly: qRT-PCR gene expression in mouse PCLS: Col1a1. The class given is cell-based. The settings on record: 48 h. On the procedure: (§1) In short, freshly prepared PCLS were transferred to 12-well plates (Greiner bio-one GmbH, Austria), one slice per well. Each well was filled with 1.3 mL pre-heated (37 ℃) and oxygenated (80%) Williams Medium E (1X, glutaMAX-1), which had been supplemented with 25 mM D-glucose monohydrate and 50 μg/ml Gentamicin (denoted as WME GG). […] The DMSO concentration used was below 0.5% in the incubation medium, equivalent to DMSO concentrations in solutions prepared by dilution of BA stock solutions with WME GG.
(§2) Three PCLS incubated under a given condition were pooled in a 1.5-mL Rnase-free test tube, snap-frozen in liquid nitrogen, and stored at – 80 °C until analysis. RNA was isolated using a FavorPrep Tissue Total RNA Mini Kit (Favorgen, Vienna, Austria). Subsequently, the RNA yield was quantified using a NanoDrop One instrument (Thermo Fisher Scientific, Massachusetts, USA). Isolated RNA was reverse-transcribed to cDNA using a cDNA synthesis kit (Reverse Transcription System, Promega, Benelux B.V.). The cDNA samples were subsequently loaded in the thermal cycler with a program set to 22 °C for 10 min, 42 °C for 15 min, and 95 °C for 5 min.
(§3) qRT-PCR was used to determine the relative mRNA expression levels for the mouse target genes: Bsep (Abcb11), Mrp2 (Abcc2), Mrp3 (Abcc3), Mrp4 (Abcc4), Ntcp (Slc10a1), Fxr (Nr1h4), Cyp7a1 (Cyp7a1), Collagen type 1a1 (Col1a1), Hsp47 (Serpinh1). Primer sequences of the genes tested are given in Supplementary Table S1. QRT-PCR was performed using, the dye, FastStart Universal SYBR Green Master Mix (Roche Diagnostics Netherlands B.V., Almere, the Netherlands) with the ViiA™ 7 Real-Time PCR System (Applied Biosystems, Bleiswijk, the Netherlands). The first cycle constituted 10 min at 95 °C, followed by 40 cycles of 15 s at 95 °C, 30 s at 60 °C and 30 s at 72 °C, followed by 1 cycle dissociation stage (15 s: 95 °C, 60 °C and 95 °C). A minimum of four mouse livers was used for each experiment, using three PCLS per condition. Samples were measured in duplicates. […] Results are expressed as log2(fold change).
(In general: In qPCR the cycle at which signal appears reflects the starting amount.)

The test system of the next data set is Mrp3 (Abcc3). Put plainly: qRT-PCR gene expression in mouse PCLS: Mrp3. The conditions noted are these: 48 h, in the presence and absence of BAs. The class given is cell-based. The procedure: (§4) In short, freshly prepared PCLS were transferred to 12-well plates (Greiner bio-one GmbH, Austria), one slice per well.
as §2
as §3, with “The first cycle constituted 10 min at 95 °C, followed by 40 cycles of 15 s at 95 °C, 30 s at 60 °C and 30 s at 72 °C, followed by 1 cycle dissociation stage (15 s: 95 °C, 60 °C and 95 °C). A minimum of four mouse livers was used for each experiment, using three PCLS per condition.” left out

Another data set relates to Hsp47 (Serpinh1). Put plainly: qRT-PCR gene expression in mouse PCLS: Hsp47. The class given is cell-based. The conditions noted are these: 48 h, in the presence of BAs, highest concentration (30 µM CPZ). The procedure:
as §1
(§5) Three PCLS incubated under a given condition were pooled in a 1.5-mL Rnase-free test tube, snap-frozen in liquid nitrogen, and stored at – 80 °C until analysis. RNA was isolated using a FavorPrep Tissue Total RNA Mini Kit (Favorgen, Vienna, Austria). Subsequently, the RNA yield was quantified using a NanoDrop One instrument (Thermo Fisher Scientific, Massachusetts, USA). Isolated RNA was reverse-transcribed to cDNA using a cDNA synthesis kit (Reverse Transcription System, Promega, Benelux B.V.). […]
(§6) qRT-PCR was used to determine the relative mRNA expression levels for the mouse target genes: Bsep (Abcb11), Mrp2 (Abcc2), Mrp3 (Abcc3), Mrp4 (Abcc4), Ntcp (Slc10a1), Fxr (Nr1h4), Cyp7a1 (Cyp7a1), Collagen type 1a1 (Col1a1), Hsp47 (Serpinh1). […] Samples were measured in duplicates. […] Results are expressed as log2(fold change).

The test system of the next data set is Mrp2 (Abcc2). Put plainly: qRT-PCR gene expression in mouse PCLS: Mrp2. The settings on record: 48 h, in the presence and absence of BAs. Format: cell-based. The procedure:
as §1, §5, §6

The test system of the next data set is mouse PCLS. The data set is described as follows: Viability of mouse PCLS by ATP content (ATP bioluminescence, normalized to protein). Format: cell-based. The settings on record: for IC50 / CC50: Mus musculus; for IC 5% (best-fit) / IC 25% (best-fit): Table S3, unit not given; for Enhancement of drug toxicity by addition of the BA mixture: extra sum of squares F-test of fits with vs w/o BA. The procedure: as §1
ATP was extracted by homogenization, followed by the centrifugation of the homogenate (16,000g at 4 °C for 5 min). The supernatant was collected, and the pellet was left to dry. An ATP Bioluminescence Assay Kit (Roche Diagnostics, Mannheim, Germany) was used to determine ATP content in the supernatant. The dried pellet was used to determine the total protein content of the PCLS using the Bio-Rad DC Protein Assay (Bio-Rad, Munich, Germany). The obtained ATP values were then normalized for the total protein content of the slice.
A minimum of three mouse livers was used for each experiment, using PCLS in triplicate from each liver. GraphPad Prism 8.4.3 was used to perform statistical analysis, using a Student’s unpaired two-tailed T-test to compare two means, or a one-way ANOVA to compare multiple means. One-way ANOVA was followed by either Tukey’s multiple comparisons test to compare all means within a dataset, or Dunnett’s multiple comparisons test to compare all means with their own control mean. Nonlinear regression analysis was followed by an extra sum of squares F-test to compare two fits. mRNA expression levels are shown as Log2(fold induction) (− ΔΔCt), though the data was statistically analyzed using the cycle threshold (ΔCt) values. Differences between groups were considered significant when p < 0.05.

Another data set has as its system Bsep. Put plainly: Western blot of Bsep protein in mouse PCLS. Format: cell-based. The settings on record: 48 h. The procedure: as §4
In brief, the protein was extracted from three slices per treatment, and protein samples were denatured (75 °C for 10 min). […] Gels were blotted onto 0.2-μm polyvinylidene fluoride membranes using a Trans-Blot Turbo Transfer System (Bio-Rad, Munich, Germany), set to ramp up to 25 V in 15 min, at a constant current of 2.5 A. Membranes were then treated for 1 h with a protein blocking agent to prevent non-specific binding of antibodies, and incubated at 4 °C overnight with Bsep primary antibody (monoclonal antibody rabbit anti-Bsep, 1:2500, Tebu-Bio, Le Perray-en-Yvelines, France), Ntcp primary antibody (polyclonal antibody, rabbit anti-Ntcp, 1:2000, Tebu-Bio), and vinculin (116 kDa) primary antibody (monoclonal antibody, mouse anti-Vinculin, 1:500, Santa Cruz, California, USA). The following day, membranes were incubated with matching secondary antibodies for 1 h (Goat anti-rabbit HRP (Bsep and Ntcp), 1:2000; Rabbit anti-mouse HRP (vinculin), 1:5000, Dako, Santa Clara). Proteins were then visualized by adding Clarity Western ECL blotting substrate (Bio-Rad, Munich, Germany) and using a ChemiDoc Touch Imaging System (BioRad, Munich, Germany) for imaging of the resulting chemiluminescence. Afterward, Bsep and Ntcp expression was normalized by vinculin expression.

In another data set the test system is Fxr (Nr1h4). The data set is described as follows: qRT-PCR gene expression in mouse PCLS: Fxr. The conditions noted are these: 48 h, 30 µM CPZ in the presence of the humanized BA mixture. Format: cell-based. The procedure: as §1, §5, §6
For the next data set, the system named is rat PCLS. On the set-up: method as in Starokozhko et al. [2017a]. The conditions noted are these: control 156.5, ref Starokozhko et al. [2017a]; cited from earlier work.
The subject of a further data set is mouse Bsep protein. Further details: method as in Noe et al. [2001]. The conditions noted are these: ref Noe et al. [2001]; cited from earlier work.
Setting [2] is: non-toxic concentration (CPZ 15 μM, CSA 1 μM, GB 25 μM), vs control with no drug and no BAs.

For the molecule `CN(C)CCCN1c2ccccc2Sc2ccc(Cl)cc21` [CPZ, Chlorpromazine hydrochloride], in the data set with human PCLS, the “Decrease in ATP content” value is reported as 40%. In addition, the Col1a1 gene expression entry in data set [1] (in the absence of BAs, highest concentration of CPZ) is on record as “significant increase”; in data set [1] (in the presence of BAs, highest concentration (30 µM CPZ)), “significantly increased”. For the same molecule, the Mrp3 gene expression entry in the data set on Mrp3 (Abcc3) is on record as “reduces”. In addition, the Hsp47 gene expression result in the data set with Hsp47 (Serpinh1) is “significantly increased”. Further, in the data set with Mrp2 (Abcc2), the Mrp2 gene expression result was “reduces”. Further, the IC50 was 29.1 µM with mouse PCLS (48 h, read-out: IC 50% (best-fit), Table S3, mouse PCLS, 48 h, w/o BA, unit not printed in table (µM in Fig. 4)); 21.6 µM with mouse PCLS (48 h, read-out: IC 50% (best-fit), Table S3, mouse PCLS, 48 h, with BA, unit not printed in table (µM in Fig. 4)); 22 to 29 µM in the data set on mouse PCLS (48 h, read-out: IC50 (50% loss in viability, ATP content), mouse PCLS, 48 h, one value or range given for with and w/o BA). In addition, the CC50 with mouse PCLS (48 h, read-out: IC50 (50% loss in viability, ATP content), mouse PCLS, 48 h, w/o BA mixture) was determined as 29 µM; in the data set with mouse PCLS (48 h, read-out: IC50 (50% loss in viability, ATP content), mouse PCLS, 48 h, with BA mixture) it was 22 µM. For the same molecule, the “IC 5% (best-fit)” value in the data set with mouse PCLS (5% decrease in ATP content, 48 h, w/o BA) was determined as 15.4; with mouse PCLS (5% decrease in ATP content, 48 h, with BA), 11.4. For the same molecule, the “IC 25% (best-fit)” value is listed as 22.9 in the data set with mouse PCLS (25% decrease in ATP content, 48 h, w/o BA) and 17.0 in the data set with mouse PCLS (25% decrease in ATP content, 48 h, with BA). In addition, the “Enhancement of drug toxicity by addition of the BA mixture” value in the data set with mouse PCLS (mouse PCLS, 48 h) is reported as “enhanced the toxicity of CPZ considerably”. In addition, the “Bsep protein expression (western blot band intensity)” value was “less pronounced” in the data set with Bsep (non-toxic concentration (CPZ 15 μM, CSA 1 μM), in the presence of the BA mixture) and “significant decrease in band intensity” in the data set with Bsep (setting [2]). Also, in the data set on Fxr (Nr1h4), the Fxr gene expression entry is given as “small, but not significant, increase”.
On to `COc1ccc(Cl)cc1C(=O)NCCc1ccc(S(=O)(=O)NC(=O)NC2CCCCC2)cc1` [GB, Glibenclamide], for which the “Intracellular GCA concentration after drug incubation” value in the data set on rat PCLS is 364.3 pmol/mg protein. Also, the “Inhibition of the mouse Bsep protein” value in the data set with mouse Bsep protein is on record as “competitively inhibit”. Moreover, in data set [1] (both with and without BAs present), the Col1a1 gene expression entry is on record as “reduced Col1a1 expression in a concentration-dependent manner”. In addition, in the data set on Mrp2 (Abcc2), the Mrp2 gene expression entry was “increases the expression of Mrp2”. The IC50 in the data set with mouse PCLS (48 h, read-out: IC50 (50% loss in viability, ATP content)) is 70 µM. Further, the IC50 in the data set with mouse PCLS (read-out: IC 50% (best-fit)) worked out at 69.7 µM. Also, in the data set on mouse PCLS (IC the same with and w/o BA), the “IC 5% (best-fit)” value was determined as 37.9 and the “IC 25% (best-fit)” value was 55.5. For the same molecule, the “Enhancement of drug toxicity by addition of the BA mixture” value with mouse PCLS (mouse PCLS, 48 h) is “not observed”. Further, the “Bsep protein expression (western blot band intensity)” value in the data set with Bsep (setting [2]) is listed as “did not induce any significant changes”.
